Assay results taken from the supplement of paper PMC10949913.

What was measured:
Conditions in all cases: 48 h
CU-ACC1 = assay: area under concentration-response curve (viability) (AUC (a.u.)); higher = less active
Summary of the method: (§1)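 AC50 and area under the curve values derive from fitted concentration-response curves, restricted to inhibitory or non-responding curve classes. The curves came from three adrenocortical carcinoma cell lines in 1,536-well plates, each receiving 23 nL of every library compound at 11 concentrations. Viability was read by CellTiter-Glo luminescence after 48 h, normalised per plate to vehicle and empty-well controls.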

CU-ACC2 [1] = assay: as above
Summary of the method: as §1

NCI-H295R [2] = assay: as above
Summary of the method: as §1

CU-ACC2 [3] = assay: AC50 viability; higher = less potent
Summary of the method: as §1

NCI-H295R [4] = assay: AC50 viability; higher = less potent
Summary of the method: as §1

SMILES | area under concentration-response curve (CU-ACC1) | area under concentration-response curve (CU-ACC2 [1]) | area under concentration-response curve (NCI-H295R [2]) | AC50 viability (CU-ACC2 [3]) | AC50 viability (NCI-H295R [4])
C[C@H]1[C@H](OC(=O)CCC(=O)O)O[C@@H]2O[C@@]3(C)CC[C@H]4[C@H](C)CC[C@@H]1[C@@]24OO3 | 354 | 585 | 522 | 20.9 µM | 20.9 µM
Cc1cc(O)c(-c2ccc([C@@H](C)CN)cc2)c2c1[nH]c(=O)c1sccc12 | 203 | 223 | 128 | 0.148 µM | 0.00105 µM
Cc1c(O)cccc1C(=O)NC(CSc1ccccc1)C(O)CN1CC2CCCCC2CC1C(=O)NC(C)(C)C (configuration not stated) | 406 | 550 | 561 | 20.9 µM | 23.5 µM
CC(=O)O/N=C1/C(=C2\C(=O)Nc3cc(Br)ccc32)Nc2ccccc21 | 492 | 561 | 525 | 9.34 µM | 13.2 µM
COC1=C(OCCCN2CCOCC2)C=C3N=CC=C(OC4=CC=C(C=C4F)\C5=C\N=C(\NC6=CC=C(F)C=C6)N(C)C5=O)C3=C1 | 474 | 528 | 400 | 18.6 µM | 8.33 µM
CN1CCC(C1CO)C2=C(O)C=C(O)C3=C2O\C(=C/C3=O)C4=CC=CC=C4Cl (configuration not stated) | 431 | 417 | 422 | 0.833 µM | 3.32 µM
COc1cc2ncn(-c3cc(OCc4ccccc4[S+](C)(=O)[O-])c(C#N)s3)c2cc1OC | 351 | 399 | 376 | 33.2 µM | 37.2 µM
N[S+](=O)([O-])OC[C@@H]1C[C@@H](n2ccc3c(N[C@H]4CCc5ccccc54)ncnc32)C[C@@H]1O | 467 | 360 | 468 | 0.468 µM | 1.66 µM
C[C@H]1CNC(=O)c2cnn3ccc(nc23)N[C@H](C)c2cc(F)ccc2O1 | 523 | 475 | 454 | 6.61 µM | 2.35 µM
COc1ccc2[nH]c3c(c2c1)CCN[C@]31CS[C@@H]2c3c(OC(C)=O)c(C)c4c(c3[C@H](COC1=O)N1[C@@H]2[C@H]2c3c(cc(C)c(OC)c3O)C[C@@H]([C@@H]1O)N2C)OCO4 | 178 | 187 | 161 | 0.00762 µM | 0.00762 µM
COCCNCc1ccc(-c2cc3nccc(Oc4ccc(NC(=S)NC(=O)Cc5ccc(F)cc5)cc4F)c3s2)nc1 | 436 | 444 | 388 | 7.42 µM | 4.68 µM
O=C1c2ccccc2-[n+]2ccc3c([nH]c4ccccc43)c21 | 379 | 381 | 374 | 2.35 µM | 2.35 µM
O=C(Nc1ccc([N+](=O)[O-])cc1Cl)c1cc(Cl)ccc1O | 411 | 471 | 481 | 1.48 µM | 1.48 µM
COC(=O)[C@@]12OC[C@]34[C@H]([C@@H](O)[C@@H]1O)[C@@]1(C)CC(=O)C(O)=C(C)[C@@H]1C[C@H]3OC(=O)[C@H](OC(=O)/C=C(\C)C(C)C)[C@@H]24 | 251 | 280 | 316 | 0.0417 µM | 0.263 µM
C=CC(=O)Nc1cccc(Oc2nc(Nc3ccc(N4CCN(C)CC4)c(F)c3)nc3[nH]ccc23)c1 | 504 | 557 | 492 | 18.6 µM | 20.9 µM
N#Cc1cc2cc(CN3CCC(Nc4ncnc5sc(CC(F)(F)F)cc45)CC3)c(O)cc2n1Cc1cn[nH]c1 | 527 | 565 | 501 | 18.6 µM | 18.6 µM
Cc1cc(Nc2ncc(Cl)c(Nc3ccccc3[S+](=O)([O-])C(C)C)n2)c(OC(C)C)cc1C1CCNCC1 | 439 | 495 | 419 | 16.6 µM | 5.9 µM
Clc1ccc(C(Cn2ccnc2)OCc2c(Cl)cccc2Cl)c(Cl)c1 (configuration not stated) | 371 | 525 | 473 | 18.6 µM | 20.9 µM
CN1C/C=C/CCOc2cccc(c2)-c2ccnc(n2)Nc2cccc(c2)C1 | 208 | 165 | 164 | 0.0525 µM | 0.235 µM
NC(=O)Nc1sc(-c2ccc(F)cc2)cc1C(N)=O | 511 | 559 | 485 | 8.33 µM | 5.9 µM
O=C(c1ccc(/C=C/c2n[nH]c3ccccc23)cc1)N1CCNCC1 | 423 | 391 | 397 | 20.9 µM | 0.263 µM

SMILES | area under concentration-response curve (CU-ACC1) | area under concentration-response curve (CU-ACC2 [1]) | area under concentration-response curve (NCI-H295R [2]) | AC50 viability (CU-ACC2 [3]) | AC50 viability (NCI-H295R [4])
CN[C@H]1CCC2=CC(=C(OC)C(=C2C/3=C/C=C(OC)\C(=O)/C=C13)OC)OC | 478 | 463 | 417 | 0.468 µM | 0.0934 µM
CC[C@]12\C=C/CN3CC[C@]4([C@@H](N(C)C5=C4C=C(C(=C5)OC)[C@]6(CC7C[C@H](CN(C7)CC8=C6[NH]C9=C8C=CC=C9)C(C)(F)F)C(=O)OC)[C@](O)([C@@H]1OC(C)=O)C(=O)OC)[C@H]23 (some centres not stated) | 468 | 533 | 394 | 5.9 µM | 1.48 µM
CCCCC(C)(C)[C@H](O)/C=C/[C@H]1[C@H](O)CC(=O)[C@@H]1C/C=C\CCCC(=O)O | 325 | 307 | 211 | 0.105 µM | 0.00372 µM
Cc1cc(Nc2cc(N3CCN(C)CC3)nc(Sc3ccc(NC(=O)C4CC4)cc3)n2)[nH]n1 | 534 | 569 | 459 | 20.9 µM | 18.6 µM
CC[S+](=O)([O-])Nc1ccc2c(c1)/C(=C(/Nc1ccc(CN3CCCCC3)cc1)c1ccccc1)C(=O)N2 | 447 | 425 | 408 | 3.32 µM | 5.25 µM
CC1(COc2ccc3c(c2)ncn3-c2ccc3cccc(N4CCC(N)CC4)c3n2)COC1 | 545 | 556 | 439 | 13.2 µM | 16.6 µM
O=C(Nc1cc(Oc2cc(F)c(NC(=O)C3(C(=O)Nc4ccc(F)cc4)CC3)cc2F)ccn1)C1CC1 | 445 | 504 | 482 | 8.33 µM | 10.5 µM
COc1cccc2c1C(=O)c1c(O)c3c(c(O)c1C2=O)C[C@@](O)(C(=O)CO)C[C@@H]3O[C@H]1C[C@H](N)[C@H](O)[C@H](C)O1 | 461 | 485 | 452 | 5.9 µM | 16.6 µM
N#Cc1ccc2c(c1)CN([S+](=O)([O-])c1cccs1)[C@H](Cc1ccccc1)CN2Cc1cnc[nH]1 | 350 | 405 | 485 | 0.833 µM | 8.33 µM
CC[S+](=O)([O-])N1CC(CC#N)(n2cc(-c3ncnc4[nH]ccc34)cn2)C1 | 472 | 530 | 513 | 20.9 µM | 18.6 µM
O=c1[nH]c2ccccc2n1C1CCN(Cc2ccc(-c3nc4cc5nc[nH]c5cc4nc3-c3ccccc3)cc2)CC1 | 558 | 604 | 492 | 20.9 µM | 20.9 µM
CC[C@@H]([C@H](C)O)N1\N=C/N(C1=O)C2=CC=C(C=C2)N3CCN(CC3)C4=CC=C(OCC5CO[C@@](C5)(C[N]6C=NC=N6)C7=C(F)C=C(F)C=C7)C=C4 (some centres not stated) | 403 | 447 | 423 | 7.42 µM | 8.33 µM
CN1CCN(Cc2ccc(Nc3ncc(Cl)/c(=N\c4ccccc4[S+](=O)([O-])N(C)C)[nH]3)cc2)CC1 | 437 | 378 | 364 | 0.108 µM | 0.241 µM
NCC(=O)NC1=CC(=CN=C1)\C2=N\N/3C(=O)\C=C(/N=C3S2)N4CCNCC4 | 269 | 254 | 143 | 0.0934 µM | 0.00417 µM
Cn1ncc(Cl)c1-c1cc(C(=O)N[C@H](CN)Cc2ccc(F)c(F)c2)sc1Cl | 488 | 550 | 473 | 14.8 µM | 14.8 µM
C[C@@H](OC[C@@]1(c2ccccc2)CC[C@]2(CCC(=O)N2)CN1)c1cc(C(F)(F)F)cc(C(F)(F)F)c1 | 550 | 566 | 497 | 20.9 µM | 16.6 µM
Oc1cccc(-c2nc(N3CCOCC3)c3oc4ncccc4c3n2)c1 | 401 | 427 | 404 | 0.332 µM | 2.09 µM
CCc1nc(C(N)=O)c(Nc2ccc(N3CCC(N4CCN(C)CC4)CC3)c(OC)c2)nc1NC1CCOCC1 | 533 | 477 | 500 | 13.2 µM | 4.17 µM
Nc1nc(Nc2ccc3c(c2)CC[C@@H](N2CCCC2)CC3)nn1-c1cc2c(nn1)-c1ccccc1CCC2 | – | 534 | 441 | 23.5 µM | 23.5 µM
CC1=N[NH]C=C1C2=CC\3=C(S2)C(=O)NC(=N3)\[C@@H]4CC5CCN4CC5 | – | 476 | 529 | 10.5 µM | 23.5 µM
C[C@@H](Oc1cc(-c2cnn(C3CCNCC3)c2)cnc1N)c1c(Cl)ccc(F)c1Cl | – | 407 | 353 | 16.6 µM | 3.72 µM
